Test results from ChEMBL document CHEMBL5537108, “A comprehensive review on the global efforts on vaccines and repurposed drugs for combating COVID-19” (Eur J Med Chem, 2023).
Where a name gives a salt, the structure may show the parent alone.

What was measured:
Assay type in all cases: functional, organism-based
Ebolavirus [1] = test: Antiviral activity against Ebola virus infected in African green monkey Vero cells incubated for 3 days by immunofocus assay; conditions: Orthoebolavirus, 72 h
SARS-CoV-2 [2] = test: Antiviral activity against SARS-CoV-2 B.1.1.7 infected in human Calu-3 cells assessed as inhibition of viral infection measured after 48 hrs by Hoechst 33342 staining based analysis; conditions: Severe acute respiratory syndrome coronavirus 2, B.1.1.7, Calu-3, 48 h
SARS-CoV-2 [3] = test: Antiviral activity against SARS-CoV-2 infected in African green monkey Vero cells assessed as reduction in virus-induced cytopathic effect incubated for 5 days by microscopic analysis; conditions: Severe acute respiratory syndrome coronavirus 2, Vero, 120 h
Ebolavirus [4] = test: Antiviral activity against EBOV infected in human Huh-7 cells assessed as reduction in viral replication; conditions: Orthoebolavirus
[5] = test system: Middle East respiratory syndrome-related coronavirus; test: Antiviral activity against MERS-CoV infected in human Calu-3 cells assessed as inhibition of viral growth by infection assay
SARS-CoV-2 [6] = test: Antiviral activity against SARS-CoV-2 NRC-03-nhCoV infected in african green monkey Vero E6 cells assessed as inhibition of virus-induced cytopathic effect measured after 72 hrs by crystal violet staining based assay; conditions: Severe acute respiratory syndrome coronavirus 2, NRC-03-nhCoV, Vero C1008, 72 h
SARS-CoV-2 [7] = test: Antiviral activity against SARS-CoV-2 infected in African green monkey Vero cells assessed as reduction in viral replication measured after 72 hrs by qRT-PCR analysis; conditions: Severe acute respiratory syndrome coronavirus 2, Vero
[8] = test system: Middle East respiratory syndrome-related coronavirus; test: Antiviral activity against MERS-CoV infected in african green monkey Vero E6; conditions: Vero C1008

CCC(CC)COC(=O)[C@H](C)N[P@](=O)(OC[C@H]1O[C@@](C#N)(c2ccc3c(N)ncnn23)[C@H](O)[C@@H]1O)Oc1ccccc1
EC50 (Ebolavirus [1]): 770 nM | EC50 (SARS-CoV-2 [2]): 67 µM | EC50 (SARS-CoV-2 [3]): 10 nM | EC50 (Ebolavirus [4]): 61.9 µM

CN(C)C(=O)COC(=O)Cc1ccc(OC(=O)c2ccc(NC(=N)N)cc2)cc1 [CAMOSTAT]
EC50 [5]: 5 nM

Cc1nc(Nc2ncc(C(=O)Nc3c(C)cccc3Cl)s2)cc(N2CCN(CCO)CC2)n1 [DASATINIB ANHYDROUS]
EC50 (SARS-CoV-2 [6]): 2100 nM

Cc1cccc(C)c1OCC(=O)N[C@@H](Cc1ccccc1)[C@@H](O)C[C@H](Cc1ccccc1)NC(=O)[C@H](C(C)C)N1CCCNC1=O [LOPINAVIR]
EC50 (SARS-CoV-2 [7]): 5.73 µM

N=C(N)Nc1ccc(C(=O)Oc2ccc3cc(C(=N)N)ccc3c2)cc1 [NAFAMOSTAT MESYLATE]
EC50 [5]: 87 nM

CC(C)c1nc(CN(C)C(=O)N[C@H](C(=O)N[C@@H](Cc2ccccc2)C[C@H](O)[C@H](Cc2ccccc2)NC(=O)OCc2cncs2)C(C)C)cs1 [RITONAVIR]
EC50 (SARS-CoV-2 [7]): 8.63 µM

CN1CCN(CCOc2cc(OC3CCOCC3)c3c(Nc4c(Cl)ccc5c4OCO5)ncnc3c2)CC1 [SARACATINIB]
EC50 [8]: 10 µM
